From patent EP2653156A1, “Pharmaceutical emulsion composition and use thereof” (College of Pharmacy of Taif University, priority 2012, dated 2013)

Test: Particle size distribution of insulin and/or L-arginine solutions by photon correlation spectroscopy (Malvern Zetasizer Nano-ZS)
Type: physicochemical
Conditions: for Median particle size D(i), Stability in form of particle size / Median particle size D(i): by intensity; for Median particle size D(i), Stability in form of particle size / Median particle size D(i) / Median particle size (n, 0.5) D(n), Stability in form of particle size / Median particle size (n, 0.5) D(n): unit nm; for Median particle size (n, 0.5) D(n), Stability in form of particle size / Median particle size (n, 0.5) D(n): by number
Method: Determination of the particle size distribution of Insulin and/or L-arginine by number as D (n, 0.5) and by intensity as D (i, 0.5) using nanosizer
The particle size distribution of two separate solutions of insulin (1 U/ml) prepared using 0.1 M HCl and L-arginine (1 mg/ml) prepared in distilled water was determined. In addition, a mixture of particles prepared by mixing insulin and L-arginine previous solutions in 1:1 v/v ratio was assessed by photon correlation spectroscopy using a Malvern Zetasizer Nano-ZS series (Malvern Instruments, UK). Collective 10 readings were performed three times on a sample at 25 °C with a detection angle of 173°. The median and standard deviations were calculated by the instrument. The viscosity was determined using a Vibro viscometer (SV-10, A&D Company, Japan) at 25°C.

[1] = Table 1 (by number), Room temp for 24 hr
[2] = Table 1 (by number), stability at 50°C for 2 hrs
[3] = Table 1 (by number), stability at 50 °C for 24 hrs
[4] = Table 2 (by intensity), Room temp for 24 hr
[5] = Table 2 (by intensity), stability at 50 °C for 2 hrs
[6] = Table 2 (by intensity), stability at 50°C for 24 hrs

| SMILES | Pdl [1] | Pdl [2] | Pdl [3] | Pdl [4] | Pdl [5] | Pdl [6] | Median particle size D(i), Stability in form of particle size (50 °C for 2 hrs) | Median particle size D(i), Stability in form of particle size (50°C for 24 hrs) | Median particle size D(i) (Room temp for 24 hr) | Median particle size (n, 0.5) D(n), Stability in form of particle size (50°C for 2 hrs) | Median particle size (n, 0.5) D(n), Stability in form of particle size (50 °C for 24 hrs) | Median particle size (n, 0.5) D(n) (Room temp for 24 hr) | particle size (in the aqueous solution) |
| --- | --- | --- | --- | --- | --- | --- | --- | --- | --- | --- | --- | --- | --- |
| N=C(N)NCCC[C@H](N)C(=O)O [L-arginine (10mg/ml), L-arginine] | 0.442 | 0.522 | 0.436 | 0.442 | 0.522 | 0.436 | 174 nm | 126 nm | 129 nm | 85.8 nm | 80.6 nm | 109 nm |  |
| N=C(N)NCCC[C@H](N)C(=O)O [L-arginine (1 mg/ml), L-arginine] | 0.474 | 0.517 | 0.31 | 0.474 | 0.517 | 0.31 | 115 nm | 148 nm | 122 nm | 102 nm | 93.8 nm | 74.8 nm | 100-150 nm |
